Target: SARS-CoV-2 Mpro (Severe acute respiratory syndrome coronavirus 2, UniProt P0DTD1)
Assay: SARS-CoV-2 Mpro FRET-based enzyme assay
Type: biochemical
Conditions: 5 nM Mpro, 25 μM FRET substrate, 20 min preincubation at room temperature; mean n=2; read-out: SARS-CoV-2 Mpro enzyme pKi assay pKi (converted)

SMILES	Ki
CC(C)C(=O)N[C@H](C(=O)N1C[C@H]2[C@@H]([C@H]1C(=O)NC(CC1CC1)C(=O)C(N)=O)C2(C)C)C(C)(C)C (stereo partly drawn) [Example 1, (1 R,2S,5S)—N-(4-Amino-1-cyclopropyl-3,4-dioxobutan-2-yl)-3-((S)-2-isobutyramido-3,3-dimethylbutanoyl)-6,6-dimethyl-3-azabicyclo[3.1.0]hexane-2-carboxamide]	15.8 nM
CC(C)[C@H](NC(=O)C1CC1)C(=O)N1C[C@H]2[C@@H]([C@H]1C(=O)NC(CC1CC1)C(=O)C(N)=O)C2(C)C (stereo partly drawn) [Example 2, (1 R,2S,5S)—N-[3-Amino-1-(cyclopropylmethyl)-2,3-dioxo-propyl]-3-[(2S)-2-(cyclopropanecarbonylamino)-3-methylbutanoyl]-6,6-dimethyl-3-azabicyclo[3.1.0]hexane-2-carboxamide]	50.1 nM
CC[C@@H](C)[C@H](NC(=O)C(C)C)C(=O)N1C[C@H]2[C@@H]([C@H]1C(=O)NC(CC1CC1)C(=O)C(N)=O)C2(C)C (stereo partly drawn) [Example 3, (1R,2S,5S)—N-(4-Amino-1-cyclopropyl-3,4-dioxobutan-2-yl)-3-(isobutyryl-L-alloisoleucyl)-6,6-dimethyl-3-azabicyclo[3.1.0]hexane-2-carboxamide]	79.4 nM
C=CC(=O)N[C@H](C(=O)N1C[C@H]2[C@@H]([C@H]1C(=O)NC(CC1CC1)C(=O)C(N)=O)C2(C)C)C(C)C (stereo partly drawn) [Example 4, (1 R,2S,5S)-3-(Acryloyl-L-valyl)-N-(4-amino-1-cyclopropyl-3,4-dioxobutan-2-yl)-6,6-dimethyl-3-azabicyclo[3.1.0]hexane-2-carboxamide]	50.1 nM
CC(C)C(=O)N[C@H](C(=O)N1C[C@H]2[C@@H]([C@H]1C(=O)NC(C[C@H]1C[C@@H]1C)C(=O)C(N)=O)C2(C)C)C(C)C (stereo partly drawn) [Example 5, (1 R,2S,5S)—N-(4-Amino-1-((1 R,2S)-2-methylcyclopropyl)-3,4-dioxobutan-2-yl)-3-(isobutyryl-L-valyl)-6,6-dimethyl-3-azabicyclo[3.1.0]hexane-2-carboxamide]	158 nM
CC(C)C(=O)N[C@@H](CC1CC1)C(=O)N1C[C@H]2[C@@H]([C@H]1C(=O)NC(CC1CC1)C(=O)C(N)=O)C2(C)C (stereo partly drawn) [Example 6, (1 R,2S,5S)—N-(4-Amino-1-cyclopropyl-3,4-dioxobutan-2-yl)-3-((S)-3-cyclopropyl-2-isobutyramidopropanoyl)-6,6-dimethyl-3-azabicyclo[3.1.0]hexane-2-carboxamide]	200 nM
CC(C)C(=O)N[C@H](C(=O)N1C[C@H]2[C@@H]([C@H]1C(=O)NC(CC1CC1)C(=O)C(N)=O)C2(C)C)C(C)C (stereo partly drawn) [Example 7, (1 R,2S,5S)—N-(4-Amino-1-cyclopropyl-3,4-dioxobutan-2-yl)-3-(isobutyryl-L-valyl)-6,6-dimethyl-3-azabicyclo[3.1.0]hexane-2-carboxamide]	200 nM
CC1(C)[C@@H]2[C@@H](C(=O)NC(CC3CC3)C(=O)C(N)=O)N(C(=O)[C@@H](NC(=O)C3CC3)C3CC3)C[C@@H]21 (stereo partly drawn) [Example 9, (1 R,2S,5S)—N-(4-Amino-1-cyclopropyl-3,4-dioxobutan-2-yl)-3-((S)-2-(cyclopropanecarboxamido)-2-cyclopropylacetyl)-6,6-dimethyl-3-azabicyclo[3.1.0]hexane-2-carboxamide]	316 nM
CC(C)C(=O)N[C@H](C(=O)N1C[C@H]2[C@@H]([C@H]1C(=O)NC(CC1CC1)C(=O)C(N)=O)C2(C)C)C1CC1 (stereo partly drawn) [Example 10, (1 R,2S,5S)—N-(4-Amino-1-cyclopropyl-3,4-dioxobutan-2-yl)-3-((S)-2-cyclopropyl-2-isobutyramidoacetyl)-6,6-dimethyl-3-azabicyclo[3.1.0]hexane-2-carboxamide]	316 nM
CC(C)C(=O)NC(C(=O)N1C[C@H]2[C@@H]([C@H]1C(=O)NC(CC1CC1)C(=O)C(N)=O)C2(C)C)C1COC1 (stereo partly drawn) [Example 13, (1 R,2S,5S)—N-(4-Amino-1-cyclopropyl-3,4-dioxobutan-2-yl)-3-(2-isobutyramido-2-(oxetan-3-yl)acetyl)-6,6-dimethyl-3-azabicyclo[3.1.0]hexane-2-carboxamide]	316 nM
CC(C)(C)[C@H](NC(=O)C1CC1)C(=O)N1C[C@H]2[C@@H]([C@H]1C(=O)NC(CC1CC1)C(=O)C(N)=O)C2(C)C (stereo partly drawn) [Example 14, (1 R,2S,5S)—N-(4-Amino-1-cyclopropyl-3,4-dioxobutan-2-yl)-3-((S)-2-(cyclopropanecarboxamido)-3,3-dimethylbutanoyl)-6,6-dimethyl-3-azabicyclo[3.1.0]hexane-2-carboxamide]	15.8 nM
C=CC(=O)N[C@H](C(=O)N1C[C@H]2[C@@H]([C@H]1C(=O)NC(CC1CC1)C(=O)C(N)=O)C2(C)C)C(C)(C)C (stereo partly drawn) [Example 15, (1 R,2S,5S)-3-((S)-2-Acrylamido-3,3-dimethylbutanoyl)-N-(4-amino-1-cyclopropyl-3,4-dioxobutan-2-yl)-6,6-dimethyl-3-azabicyclo[3.1.0]hexane-2-carboxamide]	3.98 nM
CC(C)(C)[C@H](NC(=O)C1CC1)C(=O)N1C[C@H]2[C@@H]([C@H]1C(=O)NC(CC1CC1)C(=O)C(=O)NCc1ccccc1)C2(C)C (stereo partly drawn) [Example 18, (1 R,2S,5S)—N-(4-(Benzylamino)-1-cyclopropyl-3,4-dioxobutan-2-yl)-3-((S)-2-(cyclopropanecarboxamido)-3,3-dimethylbutanoyl)-6,6-dimethyl-3-azabicyclo[3.1.0]hexane-2-carboxamide]	50.1 nM
CC(C)(C)[C@H](NC(=O)C1CC1)C(=O)N1C[C@H]2[C@@H]([C@H]1C(=O)NC(CC1CC1)C(=O)C(=O)NC1CC1)C2(C)C (stereo partly drawn) [Example 19, (1 R,2S,5S)-3-((S)-2-(Cyclopropanecarboxamido)-3,3-dimethylbutanoyl)-N-(1-cyclopropyl-4-(cyclopropylamino)-3,4-dioxobutan-2-yl)-6,6-dimethyl-3-azabicyclo[3.1.0]hexane-2-carboxamide]	50.1 nM
CNC(=O)C(=O)C(CC1CC1)NC(=O)[C@@H]1[C@@H]2[C@H](CN1C(=O)[C@@H](NC(=O)C(C)C)C(C)(C)C)C2(C)C (stereo partly drawn) [Example 22, (1 R,2S,5S)—N-(1-Cyclopropyl-4-(methylamino)-3,4-dioxobutan-2-yl)-3-((S)-2-isobutyramido-3,3-dimethylbutanoyl)-6,6-dimethyl-3-azabicyclo[3.1.0]hexane-2-carboxamide]	15.8 nM
CC(C)C(=O)N[C@H](C(=O)N1C[C@H]2[C@@H]([C@H]1C(=O)NC(CC1CC1)C(=O)C(=O)N(C)C)C2(C)C)C(C)(C)C (stereo partly drawn) [Example 23, (1 R,2S,5S)—N-(1-Cyclopropyl-4-(dimethylamino)-3,4-dioxobutan-2-yl)-3-((S)-2-isobutyramido-3,3-dimethylbutanoyl)-6,6-dimethyl-3-azabicyclo[3.1.0]hexane-2-carboxamide]	> 5010 nM
CC(C)C(=O)N[C@H](C(=O)N1C[C@H]2[C@@H]([C@H]1C(=O)NC(CC1CC1)C(=O)C(N)=O)C2(C)C)C1CCC1 (stereo partly drawn) [Example 25, (1 R,2S,5S)—N-(4-Amino-1-cyclopropyl-3,4-dioxobutan-2-yl)-3-((S)-2-cyclobutyl-2-isobutyramidoacetyl)-6,6-dimethyl-3-azabicyclo[3.1.0]hexane-2-carboxamide]	251 nM
CC(C)C(=O)N[C@H](C(=O)N1C[C@H]2[C@@H]([C@H]1C(=O)NC(C#N)CC1CC1)C2(C)C)C(C)(C)C (stereo partly drawn) [Example 27, (1 R,2S,5S)—N-(1-Cyano-2-cyclopropylethyl)-3-((S)-2-isobutyramido-3,3-dimethylbutanoyl)-6,6-dimethyl-3-azabicyclo[3.1.0]hexane-2-carboxamide]	> 5010 nM
CC(C)[C@H](NC(=O)C1CC1)C(=O)N1C[C@H]2[C@@H]([C@H]1C(=O)NC(CC1CC1)C(=O)C(=O)NC1CC1)C2(C)C (stereo partly drawn) [Example 29, (1 R,2S,5S)-3-((Cyclopropanecarbonyl)-L-valyl)-N-(1-cyclopropyl-4-(cyclopropylamino)-3,4-dioxobutan-2-yl)-6,6-dimethyl-3-azabicyclo[3.1.0]hexane-2-carboxamide]	251 nM
CC(C)C(=O)NC(C(=O)N1C[C@H]2[C@@H]([C@H]1C(=O)NC(CC1CC1)C(=O)C(N)=O)C2(C)C)C1CCOC1 (stereo partly drawn) [Example 30, (1 R,2S,5S)—N-(4-Amino-1-cyclopropyl-3,4-dioxobutan-2-yl)-3-(2-isobutyramido-2-(tetrahydrofuran-3-yl)acetyl)-6,6-dimethyl-3-azabicyclo[3.1.0]hexane-2-carboxamide]	158 nM
CC(C)C(=O)N[C@H](C(=O)N1C[C@H]2[C@@H]([C@H]1C(=O)NC(CC1CC1)C(=O)C(=O)N[C@H]1CC1(C)C)C2(C)C)C(C)(C)C (stereo partly drawn) [Example 31, (1 R,2S,5S)—N-(1-Cyclopropyl-4-(((S)-2,2-dimethylcyclopropyl)amino)-3,4-dioxobutan-2-yl)-3-((S)-2-isobutyramido-3,3-dimethylbutanoyl)-6,6-dimethyl-3-azabicyclo[3.1.0]hexane-2-carboxamide]	100 nM
CC(C)(C)[C@H](NC(=O)C(C(F)(F)F)C(F)(F)F)C(=O)N1C[C@H]2[C@@H]([C@H]1C(=O)NC(CC1CC1)C(=O)C(N)=O)C2(C)C (stereo partly drawn) [Example 33, (1 R,2S,5S)—N-(4-Amino-1-cyclopropyl-3,4-dioxobutan-2-yl)-3-((S)-3,3-dimethyl-2-(3,3,3-trifluoro-2-(trifluoromethyl)propanamido)butanoyl)-6,6-dimethyl-3-azabicyclo[3.1.0]hexane-2-carboxamide]	158 nM
